Measured values published in PMC10609854 (Pharmaceuticals, 2023).

Assays:
human sigma 2 receptor = biological target: T1, human sigma 2 receptor (Homo sapiens, UniProt Q5BJF2); test: radioligand binding, human sigma 2 receptor ([3H]DTG, Jurkat cells); settings: [3H]DTG with unlabeled (+)-pentazocine
T1 construct: host or cells: Jurkat cells

human μ opioid receptor = biological target: T2, human μ opioid receptor (Homo sapiens, UniProt P35372); test: radioligand binding, human opioid μ receptor ([3H]DAMGO, HEK293 cells)
T2 construct: host or cells: HEK293 cells
T2 sequence (P35372 whole entry): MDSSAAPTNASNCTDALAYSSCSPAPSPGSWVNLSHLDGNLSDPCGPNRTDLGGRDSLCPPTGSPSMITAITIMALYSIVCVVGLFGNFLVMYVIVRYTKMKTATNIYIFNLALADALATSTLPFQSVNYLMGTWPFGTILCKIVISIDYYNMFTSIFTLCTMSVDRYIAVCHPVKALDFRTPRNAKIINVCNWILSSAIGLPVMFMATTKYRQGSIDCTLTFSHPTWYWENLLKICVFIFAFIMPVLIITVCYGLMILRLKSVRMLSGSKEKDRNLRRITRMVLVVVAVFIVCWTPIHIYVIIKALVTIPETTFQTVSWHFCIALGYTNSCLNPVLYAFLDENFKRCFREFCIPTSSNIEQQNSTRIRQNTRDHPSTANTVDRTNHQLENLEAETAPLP

in vivo = settings: mouse
Experimental: The compound was administered at a dose of 5 mg/kg i.v. and at two doses (5 and 15 mg/kg) i.p. Before the dose (time 0) and up to 8 h at different time points following compound administration, three to five mice per time point were exsanguinated while under light ketamine/xylazine anesthesia. Blood and brains were harvested to the last measured point, whereas liver, kidneys, and lungs were collected at 0.25, 0.5, and 1 h. Serum and tissues were stored at −80 °C until assayed.
Tissues (liver, kidney, brain, and lung) were homogenized with water in a 1:5 ratio (w/v). Prior to the extraction, 100 μL of the plasma samples or 500 μL of tissue homogenates containing calibrators or authentic samples were spiked with 10 μL of IS working solution in a snap-cap microcentrifuge tubes and vortexed (Reax top, Heidolph, Schwabach, Germany) for 15 s. The serum and tissue samples were then alkalized with, respectively, 20 μL or 50 μL of 4 M sodium hydroxide solution, mixed briefly on the vortex mixer, and extracted with 1 mL of ethyl acetate/hexane (30:70, v/v) mixture by mixing for 20 min on a shaker (VXR Vibrax, IKA, Staufen, Germany). Then samples were centrifuged (EBA 12 R, Hettich, Germany) at 8000 g for 15 min and the organic layer of each sample was transferred to a new snap-cap microcentrifuge tube containing 200 μL of a methanol/0.1 M sulfuric acid mixture (1:9, v/v). Subsequently the samples were vortexed (20 min) and centrifuged again (8000 g, 15 min). Finally, the organic layer was discarded and 10–50 μL of the acidic layer was transferred to the autosampler vials (4 °C).
The HPLC system (LaChrom Elite, Merck Hitachi) consisted of the following components: an L-2130 pump, an L-2200 autosampler with a 100 μL sample loop, an L-2350 oven, and an L-2485 fluorescence detector. Excitation and emission wavelengths were set to 260 nm and 330 nm, respectively. Analysis was performed at a temperature of 25 °C on a 250 mm × 4 mm LiChrospher 100 RP-18 column from Merck Millipore (Germany), filled with 5 μm particles, protected with LiChroCART precolumn (10 μm particle size). The mobile phase containing acetonitrile and 20 mM potassium dihydrogen phosphate buffer (pH 4.5) in a 7:3 (v/v) ratio was filtered through the 0.45 µm membrane filter (Supelco Inc., Mainz, Germany) before use and pumped at a flow rate of 1.5 mL/min. […] The method was validated for serum, brain, liver kidney, and lungs.
Both one- and two-compartment pharmacokinetic models were tested. Bioavailability was estimated as a model parameter (F). […] The maximum concentration (Cmax) and the time to reach peak concentration (tmax) were obtained directly from the concentration–time data. The terminal elimination rate constant (λz) was assessed using linear regression. Terminal half-life (t0.5λz) was calculated as ln2/λz. The area under the concentration–time curve from 0 to last measured point (AUC0–last) was calculated using the linear trapezoidal rule. Non-compartmental and model-dependent analyses were performed using Phoenix WinNonlin version 6.3 (Pharsight Corp., Mountain View, CA, USA). The final pharmacokinetic model was selected on the basis of visual inspection of the fitting, examination of residuals, parameter precision, Akaike Information Criteria, and Schwarz Criteria.

[1] = system: acute thermal pain (hot plate); test: hot plate test; type: in vivo; settings: mice, 30 mg/kg i.p., 30 min before test; saline control 17.93 ± 1.04 s
Experimental: The hot plate test was performed according to classical method described in Eddy and Leimbach with modifications. At the beginning, animals were tested for their baseline pain sensitivity threshold. For further studies, only mice that fulfilled the criterium of pain response ≤30 s were used. […] The latency to pain response (licking the hind paw or jumping) was measured. The cut-off time was set to up to 60 s to avoid tissue damage, and mice not responding within 60 s were removed from the apparatus and assigned the score of 60 s.

[2] = system: carrageenan-induced edema; test: carrageenan-induced paw edema; type: in vivo; settings: rats, 30 mg/kg
Experimental: The acute, local inflammation and paw edema was induced by subplantar injection of 0.1 mL of 1% carrageenan (made in PBS) into the rat right hind paw. The paw volume was measured using the dislocation of the water column of the plethysmometer (Plethysmometr 7140, Ugo Basile) before and at 1, 2, and 3 h after subplantar injection of carrageenan.

[3] = system: histamine-induced pruritus; test: histamine-induced pruritus; type: in vivo; settings: mice
Experimental: (§1) The area (around 2 cm^2) of the nape of mice was shaved at least 2 days prior to experiments. On the day of the experiment, each mouse was individually placed in plastic chambers (15 × 15 × 30 cm). After the 30 min period of habituation, the mice received an intradermal (i.d.) injection of histamine dihydrochloride (10 µmol/site), chloroquine (CQ, 200 µg/site), or SLIGRL-NH2 (40 nmol/site), which were dissolved in physiological saline and administrated at the constant volume of 20 μL. Immediately following the injection, scratching (series of movements considered as a single scratching bout usually consisted of three single scratches) of the injected site by the hind paw was counted for 60 min, 30 min, or 45 min after histamine, CQ, and SLIGRL-NH2 injection, respectively.

CQ-induced pruritus = test: chloroquine (CQ)-induced pruritus; type: in vivo, mice; settings: mice, 2.5, 5, 10 and 15 mg/kg i.p.; 30 min observation
Experimental: as §1

SLIGRL-induced pruritus = test: SLIGRL-induced pruritus; type: in vivo; settings: mice, 45 min observation
Experimental: as §1

H3R = system: H3R; set-up: method as in PMID 28797771; settings: read-out: IC50, cAMP accumulation assay (H3R antagonist potency); cited from earlier work
[4] = up to 10 μM; cited from earlier work

T1 sequence (Q5BJF2 whole entry): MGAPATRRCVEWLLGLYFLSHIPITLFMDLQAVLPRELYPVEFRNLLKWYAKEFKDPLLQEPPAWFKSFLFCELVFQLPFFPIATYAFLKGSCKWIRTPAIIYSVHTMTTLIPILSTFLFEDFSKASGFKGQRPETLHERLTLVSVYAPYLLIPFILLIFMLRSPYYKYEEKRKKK

O=C(O)C(=O)O.c1ccc(-c2ccc(OCCCCCN3CCCCCC3)cc2)cc1 [Compound E153, 1-(5-(4-Phenylphenoxy)pentyl)azepane hydrogen oxalate]
inhibition at 1 µM (human sigma 2 receptor): 102%
inhibition at 1 µM (human μ opioid receptor): 11%
Vc (volume of the central compartment) (in vivo): 6.39 L/kg
half-life (in vivo): 41.6 min
k12 (first-order distribution rate constant) (in vivo): 0.33 h⁻¹
k21 (first-order distribution rate constant) (in vivo): 0.19 h⁻¹
k el (in vivo): 0.000278 s⁻¹
time of high (peak) concentrations in brain tissue (in vivo): 0.5 to 1 h
k01 (first-order absorption rate constant, ka) (in vivo; ip): 2.32 h⁻¹
Kp (in vivo; ip, 5 mg/kg): 28.5
brain t0.5λz (in vivo; ip, 5 mg/kg): 1.03 h
Kp (in vivo; ip, 15 mg/kg): 14.7
brain Cmax (in vivo; ip, 15 mg/kg): 11,682.69 ng/g
brain t0.5λz (in vivo; ip, 15 mg/kg): 1.46 h
Kp (in vivo; iv, 5 mg/kg): 15.7
Tmax (in vivo; iv, 5 mg/kg): 15 min
brain t0.5λz (in vivo; iv, 5 mg/kg): 0.90 h
highest concentration in liver (in vivo; iv, 5 mg/kg): 5.32 µg/g
highest concentration in lung tissue (in vivo; iv, 5 mg/kg): 43.13 µg/g
latency time of the pain reaction, hot plate test [1]: 37.60 ± 6.13 s
paw volume increase, carrageenan edema ([2]; 1 h after carrageenan, vehicle 51.1%): 27.1%
paw volume increase, carrageenan edema ([2]; 2 h after carrageenan, vehicle 102.4%): 45.4%
paw volume increase, carrageenan edema ([2]; 3 h after carrageenan, vehicle 123.5%): 42.6%
activity in histamine-induced pruritus ([3]; 5 mg/kg i.p.): active
scratching behavior, histamine-induced pruritus ([3]; i.p. 30 min before i.d. histamine): significantly reduced scratching behavior
number of scratch bouts, CQ-induced pruritus (CQ-induced pruritus): significantly decreased
scratch bouts, SLIGRL-induced pruritus (SLIGRL-induced pruritus; 5 mg/kg i.p.): not effective
scratch bouts, SLIGRL-induced pruritus (SLIGRL-induced pruritus; 7.5 and 10 mg/kg i.p.): significantly diminished
IC50 (H3R): 9 nM
mutagenicity in the AMES test [4]: non-mutagenic
